What follows are compounds tested against T1, His-tagged full-length RSK2 (RPS6KA3) (Homo sapiens, UniProt P51812) (assay: RSK2 Omnia Assay for compound IC50 determination). Conditions: ATP 15 μM, n=2, read-out: Mean RSK2 Biochem IC50.
T1 construct: His-tagged full-length RSK2 (RPS6KA3, Invitrogen PV3323); His; purchased Invitrogen PV3323
Format: biochemical
Method: RSK1 & RSK2 Omnia Assay Protocol for Compound IC50 Determination
The Omnia Assay (Invitrogen) has been optimized for His-tagged full length RSK1 (RPS6KA1, Millipore 14-509) and for His-tagged full-length RSK2 (RPS6KA3, Invitrogen PV3323). In this assay system, Omnia ST Peptide 6 (Invitrogen KNZ1061) functions as a substrate for RSK1 or RSK2. Phosphorylation of this SOX-containing peptide results in an increase in fluorescence at 485 nm upon excitation at 360 nm.
Assays are carried out in 384-well OptiPlates (Perkin Elmer 6007290) in a total volume of 20 μL containing RSK1 ([…]) or RSK2 ([…]), Omnia ST Peptide 6 (5 μM), ATP (15 μM, Km=16.3 μM), and test compound (variable) in RSK assay buffer (50 mM HEPES, pH 7.5, 10 mM MgCl2, 0.01% Tween-20, 1% glycerol, 1 mM DTT, 1 mM EGTA, 0.01% BSA) with 1% DMSO.
IC50s for test compounds are typically determined using an 11-point three-fold serial dilution with a final assay concentration ranging either from 170 μM to […] or from 17 μM to […]. All compound concentrations are assayed in duplicate. Initial compound dilutions are prepared at 100× concentration in 100% DMSO from a 10 mM stock solution. Compounds are further diluted 1:25 in assay buffer resulting in a 4× concentrated solution.
To run the assay 5 μL of the above 4× concentrated compound solution (or 4% DMSO for positive controls) is added to the assay plate followed by 5 μL of a solution containing peptide (20 μM) and ATP (60 μM) in assay buffer. The reaction is initiated by the addition of 10 μL of RSK1 ([…]) or RSK2 ([…]) in assay buffer, or assay buffer alone for negative controls. The increase in fluorescence due to peptide phosphorylation is monitored continuously as a function of time using a Spectramax M5 plate reader (Molecular Devices) equipped with SoftMax Pro software.
The slopes from the linear portion of progress curves are used to determine IC50 values by non-linear curve-fitting to a four-parameter equation using GraphPad Prism (GraphPad Software, Inc.) or XLFit (IDBS). IC50's are determined in duplicate (n=2) and Ki values are calculated from IC50 values using the Cheng-Prusoff equation assuming a competitive mode of inhibition.

T1 sequence (P51812 whole entry): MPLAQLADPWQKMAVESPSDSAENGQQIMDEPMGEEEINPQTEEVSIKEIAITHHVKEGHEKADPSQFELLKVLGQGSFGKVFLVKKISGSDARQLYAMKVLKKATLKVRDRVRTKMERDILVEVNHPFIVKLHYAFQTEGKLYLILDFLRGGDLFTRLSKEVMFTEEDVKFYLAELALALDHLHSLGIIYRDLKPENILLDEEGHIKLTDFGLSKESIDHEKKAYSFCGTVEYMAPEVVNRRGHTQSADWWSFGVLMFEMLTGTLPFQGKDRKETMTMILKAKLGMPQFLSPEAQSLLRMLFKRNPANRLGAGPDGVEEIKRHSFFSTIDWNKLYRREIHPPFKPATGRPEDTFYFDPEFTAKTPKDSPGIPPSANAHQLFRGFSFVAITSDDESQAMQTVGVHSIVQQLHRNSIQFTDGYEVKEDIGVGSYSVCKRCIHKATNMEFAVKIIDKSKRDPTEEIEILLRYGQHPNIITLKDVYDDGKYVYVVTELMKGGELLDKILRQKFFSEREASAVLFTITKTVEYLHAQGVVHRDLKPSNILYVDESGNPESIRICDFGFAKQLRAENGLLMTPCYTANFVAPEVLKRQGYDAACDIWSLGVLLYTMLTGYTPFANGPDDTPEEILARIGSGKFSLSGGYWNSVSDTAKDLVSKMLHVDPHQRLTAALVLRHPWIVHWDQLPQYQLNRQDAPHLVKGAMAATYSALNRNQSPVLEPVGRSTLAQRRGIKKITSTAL

| IC50 | SMILES |
| --- | --- |
| ≤ 100 nM | CC(C)CCN1c2nc(Nc3cc(F)c(O)c(F)c3)ncc2N(c2ccccc2)C(=O)C1C (stereo not drawn) [Example 2, 2-[(3,5-difluoro-4-hydroxyphenyl)amino]-7-methyl-8-(3-methylbutyl)-5-phenyl-7,8-dihydropteridin-6(5H)-one] |
| ≤ 100 nM | COc1ccc(N2C(=O)[C@@H](C)N(C3CCCCC3)c3nc(Nc4ccc5[nH]ncc5c4)ncc32)cc1OC [compound 111, (7R)-8-cyclohexyl-5-(3,4-dimethoxyphenyl)-2-(1H-indazol-5-ylamino)-7-methyl-7,8-dihydropteridin-6(5H)-one] |
| ≤ 100 nM | C[C@@H]1C(=O)N(c2cccnc2)c2cnc(Nc3cc(F)c4[nH]ncc4c3)nc2N1[C@H]1CC[C@@H](C(F)(F)F)CC1 [compound 255, (7R)-2-[(7-fluoro-1H-indazol-5-yl)amino]-7-methyl-5-(pyridin-3-yl)-8-[cis-4-(trifluoromethyl)cyclohexyl]-7,8-dihydropteridin-6(5H)-one] |
| ≤ 100 nM | CO[C@H]1CC[C@@H](N2c3nc(Nc4cc(F)c5[nH]ncc5c4)ncc3N(c3cccc(C#N)c3)C(=O)[C@H]2C)CC1 [compound 223, 3-[(7R)-2-[(7-fluoro-1H-indazol-5-yl)amino]-8-(cis-4-methoxycyclohexyl)-7-methyl-6-oxo-7,8-dihydropteridin-5(6H)-yl]benzonitrile] |
| > 1000 nM | C[C@@H]1C(=O)N(c2cccc(C#N)c2)c2cnc(Nc3ccc4[nH]c(=O)[nH]c4c3)nc2N1C1CCC(F)(F)CC1 [compound 265, 3-[(7R)-8-(4,4-difluorocyclohexyl)-7-methyl-6-oxo-2-[(2-oxo-2,3-dihydro-1H-benzimidazol-5-yl)amino]-7,8-dihydropteridin-5(6H)-yl]benzonitrile] |
| ≤ 100 nM | C[C@@H]1C(=O)N(c2ccc(S(C)(=O)=O)cc2)c2cnc(Nc3ccc4[nH]ncc4c3)nc2N1C1CCCCC1 [Example 40, (7R)-8-cyclohexyl-2-(1H-indazol-5-ylamino)-7-methyl-5-[4-(methylsulfonyl)phenyl]-7,8-dihydropteridin-6(5H)-one] |
| ≤ 100 nM | COc1ccc(N2C(=O)[C@@H](C)N([C@H]3CC[C@@H](C(F)(F)F)CC3)c3nc(Nc4cc(F)c5[nH]ncc5c4)ncc32)cc1OC [compound 257, (7R)-5-(3,4-dimethoxyphenyl)-2-[(7-fluoro-1H-indazol-5-yl)amino]-7-methyl-8-[cis-4-(trifluoromethyl)cyclohexyl]-7,8-dihydropteridin-6(5H)-one] |
| ≤ 100 nM | C[C@@H]1C(=O)N(c2cccc(C#N)c2)c2cnc(Nc3cc(F)c4c(c3)CC(=O)N4)nc2N1C1CCCCC1 [compound 145, 3-[(7R)-8-cyclohexyl-2-[(7-fluoro-2-oxo-2,3-dihydro-1H-indol-5-yl)amino]-7-methyl-6-oxo-7,8-dihydropteridin-5(6H)-yl]benzonitrile] |
| ≤ 100 nM | CC[C@@H]1C(=O)N(c2cccnc2)c2cnc(Nc3cc(F)c4[nH]ncc4c3)nc2N1C1CCCCC1 [compound 288, (7R)-8-cyclohexyl-7-ethyl-2-[(7-fluoro-1H-indazol-5-yl)amino]-5-(pyridin-3-yl)-7,8-dihydropteridin-6(5H)-one] |
| 100 to 1000 nM | CC(C)CCN1c2nc(Nc3ccc(CC(=O)N(C)C)cc3)ncc2N(c2ccccc2)C(=O)C1C (stereo not drawn) [Example 6, N,N-dimethyl-2-(4-{[7-methyl-8-(3-methylbutyl)-6-oxo-5-phenyl-5,6,7,8-tetrahydropteridin-2-yl]amino}phenyl)acetamide] |
| ≤ 100 nM | CC(C)Oc1ccc(N2C(=O)[C@@H](C)N(C3CCC(F)(F)CC3)c3nc(Nc4ccc5[nH]c(=O)oc5c4)ncc32)cc1C#N [compound 285, 5-[(7R)-8-(4,4-difluorocyclohexyl)-7-methyl-6-oxo-2-[(2-oxo-2,3-dihydro-1,3-benzoxazol-6-yl)amino]-7,8-dihydropteridin-5(6H)-yl]-2-(propan-2-yloxy)benzonitrile] |
| ≤ 100 nM | COc1ccc(N2C(=O)[C@@H](C)N(C3CCC(=O)CC3)c3nc(Nc4cc(F)c5[nH]ncc5c4)ncc32)cc1OC [compound 308, (7R)-5-(3,4-dimethoxyphenyl)-2-[(7-fluoro-1H-indazol-5-yl)amino]-7-methyl-8-(4-oxocyclohexyl)-7,8-dihydropteridin-6(5H)-one] |
| ≤ 100 nM | CC[C@@H]1C(=O)N(c2cccc(C#N)c2)c2cnc(Nc3ccc4[nH]ncc4c3)nc2N1C1CCCC1 [compound 140, 3-[(7R)-8-cyclopentyl-7-ethyl-2-(1H-indazol-5-ylamino)-6-oxo-7,8-dihydropteridin-5(6H)-yl]benzonitrile] |
| > 1000 nM | COC(=O)c1ccc(Nc2ncc3c(n2)N(CCC(C)C)C(C)C(=O)N3c2ccccc2)cc1 (stereo not drawn) [Example 9, methyl 4-{[7-methyl-8-(3-methylbutyl)-6-oxo-5-phenyl-5,6,7,8-tetrahydropteridin-2-yl]amino}benzoate] |
| 100 to 1000 nM | CO[C@H]1CC[C@H](N2c3nc(Nc4cc5cn[nH]c5cn4)ncc3N(c3cccc(C#N)c3)C(=O)[C@H]2C)CC1 [compound 230, 3-[(7R)-8-(trans-4-methoxycyclohexyl)-7-methyl-6-oxo-2-(1H-pyrazolo[3,4-c]pyridin-5-ylamino)-7,8-dihydropteridin-5(6H)-yl]benzonitrile] |
| 100 to 1000 nM | C[C@H]1C(=O)N(c2ccccc2)c2cnc(Nc3ccc4[nH]ncc4c3)nc2N1C1CCCCC1 [Example 62, (7S)-8-cyclohexyl-2-(1H-indazol-5-ylamino)-7-methyl-5-phenyl-7,8-dihydropteridin-6(5H)-one] |
| ≤ 100 nM | CSc1ccc(N2C(=O)[C@@H](C)N(C3CCCCC3)c3nc(Nc4ccc5[nH]ncc5c4)ncc32)cn1 [compound 98, (7R)-8-cyclohexyl-2-(1H-indazol-5-ylamino)-7-methyl-5-[6-(methylsulfanyl)pyridin-3-yl]-7,8-dihydropteridin-6(5H)-one] |
| ≤ 100 nM | COc1ccc(N2C(=O)[C@@H](C)N(C3CCC(F)(F)CC3)c3nc(Nc4cnc5[nH]ncc5c4)ncc32)cc1C#N [compound 279, 5-[(7R)-8-(4,4-difluorocyclohexyl)-7-methyl-6-oxo-2-(1H-pyrazolo[3,4-b]pyridin-5-ylamino)-7,8-dihydropteridin-5(6H)-yl]-2-methoxybenzonitrile] |
| ≤ 100 nM | C[C@@H]1C(=O)N(c2ccc(Cl)c(C#N)c2)c2cnc(Nc3ccc4[nH]ncc4c3)nc2N1C1CCCCC1 [compound 105, 2-chloro-5-[(7R)-8-cyclohexyl-2-(1H-indazol-5-ylamino)-7-methyl-6-oxo-7,8-dihydropteridin-5(6H)-yl]benzonitrile] |
| ≤ 100 nM | C[C@@H]1C(=O)N(c2cccc(C#N)c2)c2cnc(Nc3ccc4[nH]c(=O)oc4c3)nc2N1C1CCC(F)(F)CC1 [compound 266, 3-[(7R)-8-(4,4-difluorocyclohexyl)-7-methyl-6-oxo-2-[(2-oxo-2,3-dihydro-1,3-benzoxazol-6-yl)amino]-7,8-dihydropteridin-5(6H)-yl]benzonitrile] |
| ≤ 100 nM | CC(C)CCN1c2nc(Nc3cc(F)c4[nH]ncc4c3)ncc2N(c2cccc(C#N)c2)C(=O)[C@H]1C [Example 86, 3-[(7R)-2-[(7-fluoro-1H-indazol-5-yl)amino]-7-methyl-8-(3-methylbutyl)-6-oxo-7,8-dihydropteridin-5(6H)-yl]benzonitrile] |
| ≤ 100 nM | C[C@@H]1C(=O)N(c2ccc(N3CCN(C)CC3)nc2)c2cnc(Nc3cc(F)c4[nH]ncc4c3)nc2N1[C@H]1CC[C@H](C)CC1 [compound 242, (7R)-2-[(7-fluoro-1H-indazol-5-yl)amino]-7-methyl-8-(trans-4-methylcyclohexyl)-5-[6-(4-methylpiperazin-1-yl)pyridin-3-yl]-7,8-dihydropteridin-6(5H)-one] |
| ≤ 100 nM | C[C@@H]1C(=O)N(c2cccc(F)c2)c2cnc(Nc3cc(F)c4[nH]ncc4c3)nc2N1C1CCCCC1 [compound 137, (7R)-8-cyclohexyl-2-[(7-fluoro-1H-indazol-5-yl)amino]-5-(3-fluorophenyl)-7-methyl-7,8-dihydropteridin-6(5H)-one] |
| 100 to 1000 nM | Cc1cc(Nc2ncc3c(n2)N(C2CCCCC2)[C@H](C)C(=O)N3c2cccc(C#N)c2)cc2cn[nH]c12 [Example 59, 3-[(7R)-8-cyclohexyl-7-methyl-2-[(7-methyl-1H-indazol-5-yl)amino]-6-oxo-7,8-dihydropteridin-5(6H)-yl]benzonitrile] |

Source: patent US9351974B2, “Substituted pteridinones for the treatment of cancer” (OSI Pharmaceuticals, LLC, priority 2011, dated 2016)
